# Source: patent US20260116868A1 (Arcus Biosciences, Inc., priority 2023, published 2026)
# Target: T1, Cbl-b (Homo sapiens, UniProt Q13191)
# T1 construct: biotin (biotinylated protein)
# Experiment: Cbl-b probe displacement HTRF binding assay
# Details: 0.4 nM Cbl-b, 150 nM BODIPY probe
# Procedure: The affinity with which compounds of the present disclosure bind to Cbl-b was assessed using probe displacement homologous time resolved fluorescence (HTRF) assays. The assays used a BODIPY™ conjugated probe (Example 54 from WO 2020264398) and biotinylated Cbl-b. The assays were performed in assay buffer consisting of 20 mM Hepes, 150 mM NaCl, 0.01% Triton X-100, 0.5 mM TCEP, 0.01% BSA. On the day of the assay, a 20 point, 1:2 master serial dilution of each compound was prepared in DMSO to span a final concentration range of […] to 0 nM. Two hundred nanoliters of diluted compound was added to each well of a 384-well plate. Fifteen microliters of biotinylated- Cbl-b resuspended in assay buffer were added to each well and the plate incubated for 60 minutes at room temperature prior to addition of 5 μL of BODIPY™ probe in assay buffer. Final assay conditions included 0.4 nM of Cbl-b and 150 nM of BODIPY™ probe. After a further 15 minutes of incubation at room temperature, 5 μl of Streptavidin-Terbium cryptate reagent at 5-fold final concentration was added to each well of the 384-well plate. Binding of a probe to Cbl-b results in an increase of HTRF signal. HTRF signal was measured by Envision plate reader, while competition of a compound of the present disclosure with probe results in a decrease of signal. Percentage maximum activity in each test well was calculated based on DMSO (maximum activity, 0% displacement) and no protein control wells (baseline activity, 100% displacement). Binding affinity was determined from a dose response curve fitted using a standard four parameter fit equation. See Table 7 for data for compounds (Cbl-b Binding (IC50)).
# T1 sequence (Q13191 whole entry, species assumed): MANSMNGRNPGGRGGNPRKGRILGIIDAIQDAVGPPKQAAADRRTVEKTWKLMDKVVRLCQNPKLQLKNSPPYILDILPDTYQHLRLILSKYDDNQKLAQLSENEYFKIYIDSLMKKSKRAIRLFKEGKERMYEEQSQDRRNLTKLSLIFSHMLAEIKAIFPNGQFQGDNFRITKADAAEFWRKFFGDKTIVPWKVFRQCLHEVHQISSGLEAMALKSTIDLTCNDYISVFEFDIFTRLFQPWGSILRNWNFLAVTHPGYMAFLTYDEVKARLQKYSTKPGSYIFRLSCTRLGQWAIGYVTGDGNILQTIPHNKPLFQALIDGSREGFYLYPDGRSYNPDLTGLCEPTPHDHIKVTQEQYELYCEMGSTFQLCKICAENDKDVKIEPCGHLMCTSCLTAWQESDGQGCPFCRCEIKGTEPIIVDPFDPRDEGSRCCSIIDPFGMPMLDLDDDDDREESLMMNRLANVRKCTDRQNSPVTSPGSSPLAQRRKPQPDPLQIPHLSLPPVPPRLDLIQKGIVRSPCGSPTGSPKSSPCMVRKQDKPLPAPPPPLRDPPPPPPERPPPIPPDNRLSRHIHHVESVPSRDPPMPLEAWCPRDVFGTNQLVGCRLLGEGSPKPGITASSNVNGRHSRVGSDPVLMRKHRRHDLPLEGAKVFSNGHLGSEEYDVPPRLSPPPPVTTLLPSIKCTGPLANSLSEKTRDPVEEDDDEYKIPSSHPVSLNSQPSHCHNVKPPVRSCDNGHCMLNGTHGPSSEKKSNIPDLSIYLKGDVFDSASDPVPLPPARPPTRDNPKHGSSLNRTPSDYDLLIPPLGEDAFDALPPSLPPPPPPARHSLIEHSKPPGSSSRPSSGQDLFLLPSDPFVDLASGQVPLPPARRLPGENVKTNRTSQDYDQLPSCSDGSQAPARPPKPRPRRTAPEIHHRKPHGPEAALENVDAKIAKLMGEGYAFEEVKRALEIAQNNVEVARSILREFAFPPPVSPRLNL
row,SMILES,IC50
1,"O=C(Nc1cc(-c2c(F)cc(Cl)cc2C(=O)N2CC(F)(F)C2)cc(C2CC2)n1)c1cc(CNC[C@@H]2CCCCO2)cn(C2CC2)c1=O [Example 146, N-(4-{4-chloro-2-[(3,3-difluoro-1-azetidinyl)carbonyl]-6-fluorophenyl}-6-cyclopropyl-2-pyridyl)-1-cyclopropyl-2-oxo-5-[({[(S)-tetrahydro-2H-pyran-2-yl]methyl}amino)methyl]-1,2-dihydronicotinamide]",< 100 nM
2,"COCCNCc1cc(C(=O)Nc2cc(-c3c(F)cc(Cl)cc3C(=O)N3CC(F)(F)C3)cc(C3CC3)n2)c(=O)n(C2CC2)c1 [Example 147, N-(4-{4-chloro-2-[(3,3-difluoro-1-azetidinyl)carbonyl]-6-fluorophenyl}-6-cyclopropyl-2-pyridyl)-1-cyclopropyl-5-[(2-methoxyethylamino)methyl]-2-oxo-1,2-dihydronicotinamide]",< 100 nM
3,"O=C(Nc1cc(-c2c(F)cc(Cl)cc2C(=O)N2CC(F)(F)C2)cc(C2CC2)n1)c1cc(CNCC2CC2)cn(C2CC2)c1=O [Example 148, N-(4-{4-chloro-2-[(3,3-difluoro-1-azetidinyl)carbonyl]-6-fluorophenyl}-6-cyclopropyl-2-pyridyl)-1-cyclopropyl-5-{[(cyclopropylmethyl)amino]methyl}-2-oxo-1,2-dihydronicotinamide]",< 100 nM
4,"CO[C@@H](C)CNCc1cc(C(=O)Nc2cc(-c3ccc(OC(F)F)cc3C(=O)N3CC(F)(F)C3)cc(Cl)n2)c(=O)n(C2CC2)c1 [Example 149, N-(6-chloro-4-{2-[(3,3-difluoro-1-azetidinyl)carbonyl]-4-difluoromethoxyphenyl}-2-pyridyl)-1-cyclopropyl-5-{[(S)-2-methoxypropylamino]methyl}-2-oxo-1,2-dihydronicotinamide]",< 100 nM
5,"COc1ccc(-c2cc(NC(=O)c3cc(CNC[C@H](C)OC)cn(C4CC4)c3=O)nc(C3CC3)c2)c(C(=O)N2CC(F)(F)C2)c1 [Example 150, N-(6-Cyclopropyl-4-{2-[(3,3-difluoro-1-azetidinyl)carbonyl]-4-methoxyphenyl}-2-pyridyl)-1-cyclopropyl-5-{[(S)-2-methoxypropylamino]methyl}-2-oxo-1,2-dihydronicotinamide]",< 100 nM
6,"COc1ccc(-c2cc(NC(=O)c3cc(CNCC(C)C)cn(C4CC4)c3=O)nc(C3CC3)c2)c(C(=O)N2CC(F)(F)C2)c1 [Example 151, N-(6-Cyclopropyl-4-{2-[(3,3-difluoro-1-azetidinyl)carbonyl]-4-methoxyphenyl}-2-pyridyl)-1-cyclopropyl-5-[(isobutylamino)methyl]-2-oxo-1,2-dihydronicotinamide]",< 100 nM
7,"COc1ccc(-c2cc(NC(=O)c3cc(CN[C@@H](C)[C@H](C)OC)cn(C4CC4)c3=O)nc(C3CC3)c2)c(C(=O)N2CC(F)(F)C2)c1 [Example 152, N-(6-Cyclopropyl-4-{2-[(3,3-difluoro-1-azetidinyl)carbonyl]-4-methoxyphenyl}-2-pyridyl)-1-cyclopropyl-5-{[(1S,2S)-2-methoxy-1-methylpropylamino]methyl}-2-oxo-1,2-dihydronicotinamide]",< 100 nM
8,"COc1ccc(-c2cc(NC(=O)c3cc(CNC[C@@H]4CCCO4)cn(C4CC4)c3=O)nc(C3CC3)c2)c(C(=O)N2CC(F)(F)C2)c1 [Example 153, N-(6-Cyclopropyl-4-{2-[(3,3-difluoro-1-azetidinyl)carbonyl]-4-methoxyphenyl}-2-pyridyl)-1-cyclopropyl-2-oxo-5-[({[(S)-perhydro-2-furyl]methyl}amino)methyl]-1,2-dihydronicotinamide]",< 100 nM
9,"CO[C@@H](C)CNCc1cc(C(=O)Nc2cc(-c3ccc(Cl)cc3C(=O)N3CC(C#N)C3)cc(C3CC3)n2)c(=O)n(C2CC2)c1 [Example 155, N-(4-{4-Chloro-2-[(3-cyano-1-azetidinyl)carbonyl]phenyl}-6-cyclopropyl-2-pyridyl)-1-cyclopropyl-5-{[(S)-2-methoxypropylamino]methyl}-2-oxo-1,2-dihydronicotinamide]",< 100 nM
10,"CO[C@@H](C)CNCc1cc(C(=O)Nc2cc(-c3ccc(Cl)cc3C(=O)N3CCC3)cc(C3CC3)n2)c(=O)n(C2CC2)c1 [Example 156, N-(4-{2-[(1-Azetidinyl)carbonyl]-4-chlorophenyl}-6-cyclopropyl-2-pyridyl)-1-cyclopropyl-5-{[(S)-2-methoxypropylamino]methyl}-2-oxo-1,2-dihydronicotinamide]",< 100 nM
11,"CO[C@@H](C)CNCc1cc(C(=O)Nc2cc(-c3ccc(Cl)cc3C(=O)N3CC(C(F)(F)F)C3)cc(C3CC3)n2)c(=O)n(C2CC2)c1 [Example 157, N-[4-(4-Chloro-2-{[3-(trifluoromethyl)-1-azetidinyl]carbonyl}phenyl)-6-cyclopropyl-2-pyridyl]-1-cyclopropyl-5-{[(S)-2-methoxypropylamino]methyl}-2-oxo-1,2-dihydronicotinamide]",< 100 nM
12,"CO[C@@H](C)CNCc1cc(C(=O)Nc2cc(-c3ccc(Cl)cc3C(=O)N3CC(C)(F)C3)cc(C3CC3)n2)c(=O)n(C2CC2)c1 [Example 158, N-(4-{4-Chloro-2-[(3-fluoro-3-methyl-1-azetidinyl)carbonyl]phenyl}-6-cyclopropyl-2-pyridyl)-1-cyclopropyl-5-{[(S)-2-methoxypropylamino]methyl}-2-oxo-1,2-dihydronicotinamide]",< 100 nM
13,"CO[C@@H](C)CNCc1cc(C(=O)Nc2cc(-c3ccc(Cl)cc3C(=O)N3CC(C)C3)cc(C3CC3)n2)c(=O)n(C2CC2)c1 [Example 159, N-(4-{4-Chloro-2-[(3-methyl-1-azetidinyl)carbonyl]phenyl}-6-cyclopropyl-2-pyridyl)-1-cyclopropyl-5-{[(S)-2-methoxypropylamino]methyl}-2-oxo-1,2-dihydronicotinamide]",< 100 nM
14,"CO[C@@H](C)CNCc1cc(C(=O)Nc2cc(-c3ccc(Cl)cc3C(=O)N3CC4(COC4)C3)cc(C3CC3)n2)c(=O)n(C2CC2)c1 [Example 160, N-(4-{4-Chloro-2-[(2-oxa-6-aza-6-spiro[3.3]heptyl)carbonyl]phenyl}-6-cyclopropyl-2-pyridyl)-1-cyclopropyl-5-{[(S)-2-methoxypropylamino]methyl}-2-oxo-1,2-dihydronicotinamide]",< 100 nM
15,"CO[C@@H](C)CNCc1cc(C(=O)Nc2cc(-c3ccc(Cl)cc3C(=O)N(C)C)cc(C3CC3)n2)c(=O)n(C2CC2)c1 [Example 161, N-{4-[4-Chloro-2-(N,N-dimethylcarbamoyl)phenyl]-6-cyclopropyl-2-pyridyl}-1-cyclopropyl-5-{[(S)-2-methoxypropylamino]methyl}-2-oxo-1,2-dihydronicotinamide]",< 100 nM
16,CO[C@@H](C)CNCc1cc(C(=O)Nc2cc(-c3ccc(Cl)cc3C(=O)N3CC(F)(F)C3)cc(OCC(F)F)n2)c(=O)n(C2CC2)c1 [Example 162],< 100 nM
17,CO[C@@H](C)CNCc1cc(C(=O)Nc2cc(-c3ccc(Cl)cc3C(=O)N3CC(F)(F)C3)cc(OCC(F)(F)F)n2)c(=O)n(C2CC2)c1 [Example 163],< 100 nM
18,O=C(Nc1cc(-c2ccc(OC(F)F)cc2C(=O)N2CC(F)(F)C2)cc(OCC(F)F)n1)c1cc(CNC[C@@H]2CCCO2)cn(C2CC2)c1=O [Example 164],< 100 nM
19,O=C(Nc1cc(-c2ccc(OC(F)F)cc2C(=O)N2CC(F)(F)C2)cc(OCC(F)F)n1)c1cc(CNC[C@@H]2COCCO2)cn(C2CC2)c1=O [Example 165],< 100 nM
20,Cc1ccc(-c2cc(NC(=O)c3cc(CNC[C@@H]4CCCO4)cn(C4CC4)c3=O)nc(OCC(F)F)c2)c(C(=O)N2CC(F)(F)C2)c1 [Example 166],< 100 nM
21,C[C@H](NCc1cc(C(=O)Nc2cc(-c3ccc(C#N)cc3C(=O)N3CC(F)(F)C3)cc(C3CC3)n2)c(=O)n(C)c1)C1CCC1 [Example 167],< 100 nM
22,CCn1cc(CNCC(C)C)cc(C(=O)Nc2cc(-c3ccc(C#N)cc3C(=O)N3CC(F)(F)C3)cc(C3CC3)n2)c1=O [Example 168],< 100 nM
23,CO[C@@H](C)CNCc1cc(C(=O)Nc2cc(-c3ccc(Cl)cc3C(=O)N3CC(F)(F)C3)cc(NC(C)C)n2)c(=O)n(C)c1 [Example 169],< 100 nM
24,CCn1cc(CNC[C@H](C)OC)cc(C(=O)Nc2cc(-c3ccc(C#N)cc3C(=O)N3CC(F)(F)C3)cc(C3CC3)n2)c1=O [Example 170],< 100 nM
25,COC[C@H](C)NCc1cc(C(=O)Nc2cc(-c3ccc(C#N)cc3C(=O)N3CC(F)(F)C3)cc(C3CC3)n2)c(=O)n(C)c1 [Example 171],< 100 nM
26,CCNc1cc(-c2ccc(Cl)cc2C(=O)N2CC(F)(F)C2)cc(NC(=O)c2cc(CNC[C@H](C)OC)cn(C)c2=O)n1 [Example 172],< 100 nM
27,Cn1cc(CNC[C@@H]2CCCO2)cc(C(=O)Nc2cc(-c3ccc(C#N)cc3C(=O)N3CC(F)(F)C3)cc(C3CC3)n2)c1=O [Example 173],< 100 nM
28,CO[C@@H](C)CNCc1cc(C(=O)Nc2cc(-c3ccc(C#N)cc3C(=O)N3CC(F)(F)C3)cc(C3CC3)n2)c(=O)n(CC(F)(F)F)c1 [Example 174],< 100 nM
29,CC(C)CNCc1cc(C(=O)Nc2cc(-c3ccc(C#N)cc3C(=O)N3CC(F)(F)C3)cc(C3CC3)n2)c(=O)n(C)c1 [Example 175],< 100 nM
